Experimental data from patent publication US11672798B2, “Ciprofloxacin ophthalmic topical composition for treating ocular disease” (LABORATORIOS SALVAT, S.A., priority 2021, dated 2023).

Key:
[1] = system: SIRC (Statens Serum Institut Rabbit Cornea, ATCC CCL-60) cells
Procedure: Permeability assays were performed in triplicate and repeated at least in three independent assays on different days. For this purpose, SIRC (Statens Serum Institut Rabbit Cornea, ATCC® CCL-60™) cells were seeded in sterile 6-well microfilter plates and maintained in culture until confluence. SIRC cells were cultured in Eagle's Minimum Essential Medium (EMEM) supplemented with 10% foetal bovine serum (FBS) and with 1% of penicillin-streptomycin solution at 37° C. and 10% CO2 in air. Ciprofloxacin was dissolved in dimethyl sulfoxide (DMSO) to prepare a concentrated stock solution which was further diluted in culture medium to obtain a final concentration of 20 μg/ml.
The cells were treated with ciprofloxacin alone or in combination with the different concentrations of each corticosteroid for 15 minutes. After the incubation period, the culture medium was removed, and the cells were harvested by trypsinization and centrifuged at 980 g for 5 min at 4° C. The cellular pellet was washed with saline solution to remove possible traces of residual extracellular compounds, centrifuged, and preserved at −80° C. for further analysis.
Intracellular ciprofloxacin was quantified by ultra-high-performance liquid chromatography coupled to tandem mass spectrometry (UHPLC-MS/MS). […] Transition monitored for ciprofloxacin was m/z 332.2→288.2, with cone voltage 35 V and collision energy 20 eV.

[2] = topical ocular administration, background statement; cited from earlier work

SMILES	dose dependence of the penetration enhancing effect on ciprofloxacin [1]	fraction of topically instilled drug absorbed into the ocular tissue [2]
CC1(C)O[C@@H]2C[C@H]3[C@@H]4C[C@H](F)C5=CC(=O)C=C[C@]5(C)[C@@]4(F)[C@@H](O)C[C@]3(C)[C@]2(C(=O)CO)O1 [fluocinolone acetonide, Fluocinolone acetonide]	dose-dependent	–
O=C(O)c1cn(C2CC2)c2cc(N3CCNCC3)c(F)cc2c1=O [ciprofloxacin, Ciprofloxacin]	–	around 1%
